Experiment [1] has as its target T1, Human recombinant AT1 receptor (Homo sapiens, UniProt P30556).
T1 construct: purchased
T1 sequence (P30556 1-359): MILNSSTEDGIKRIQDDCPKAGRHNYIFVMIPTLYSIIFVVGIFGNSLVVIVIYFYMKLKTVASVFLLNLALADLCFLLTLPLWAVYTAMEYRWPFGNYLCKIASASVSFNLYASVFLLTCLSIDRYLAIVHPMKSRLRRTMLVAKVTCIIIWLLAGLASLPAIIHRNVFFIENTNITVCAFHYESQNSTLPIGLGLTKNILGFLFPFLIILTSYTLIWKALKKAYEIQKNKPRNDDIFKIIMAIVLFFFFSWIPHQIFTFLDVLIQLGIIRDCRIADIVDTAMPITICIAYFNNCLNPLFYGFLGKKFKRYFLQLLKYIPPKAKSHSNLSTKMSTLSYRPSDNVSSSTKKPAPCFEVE
As to the kind of experiment: AT1 receptor radioligand binding (flashplate). To be noted: 125I Sar1,Ile8-Angiotensin II radioligand. The procedure:
Angiotensin II receptor antagonist activity may be determined using commercially available flashplates coated with the AT1 or AT2 receptor which provide a rapid and high throughput means to evaluate compounds compared to traditional filtration based assays (Regina M. Van Der Hee et al., Journal of Biomolecular Screening 10(2); 2005; 118-126).
AT1 receptor affinity was determined in a radioligand binding format using commercially available flashplate technology. Human recombinant AT1 receptor were coated on the wells of a 96 well flashplate and test compounds were diluted and added to wells at a final concentration range of 50 μM to 1 μM. Total binding was determined in the absence of compound and non-specific binding in the presence of 10 μM cold Angiotensin II. ^125I labeled Sar^1, Ile^8-Angiotensin II was added to all wells at Kd concentration and left for 2 hours at room temperature to equilibrate. Plates were read on a TopCount (Perkin Elmer) and concentration-response curves constructed using commercial curve fitting software. The Ki was determined via interpolation and the use of the Cheng-Prussof equation.

The target in experiment [2] is T2, human PPARγ LBD bound to Gal4 DBD (Homo sapiens, UniProt P37231).
T2 construct: expressed in transfected cells; host or cells: HepG2
T2 sequence (P37231 238-503 limits assumed): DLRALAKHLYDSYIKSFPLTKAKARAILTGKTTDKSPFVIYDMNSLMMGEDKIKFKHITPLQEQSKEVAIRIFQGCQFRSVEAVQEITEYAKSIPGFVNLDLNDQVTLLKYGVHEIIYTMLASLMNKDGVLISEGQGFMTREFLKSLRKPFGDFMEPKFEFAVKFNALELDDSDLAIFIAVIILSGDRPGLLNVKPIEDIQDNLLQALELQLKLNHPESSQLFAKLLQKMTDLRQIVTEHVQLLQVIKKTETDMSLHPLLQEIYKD
Put plainly: PPARγ transfection luciferase reporter assay in HepG2 cells. Type of experiment: cell-based. To be noted: for Emax: HepG2, 24 h, compared to full agonist response (standard TZD full agonist), read-out: PPARγ % activation; for EC50: HepG2, 24 hours exposure. The procedure: PPARγ agonist activity may be determined by a cell line transiently transfected with PPARγ bound to a DNA binding domain that controls luciferase expression. The degree of receptor agonism is measured by the amount of luciferase activity after compound treatment. The ratio of treated cells over vehicle control cells provides a measure of fold activation and allows an EC50 (shown in tables I and II as […] EC50) and % activation to be calculated
A human hepatocellular carcinoma cell line (HepG2) was subcultured into dishes and transiently transfected with DNA to allow expression of human PPARγ LBD bound to Gal4 DBD. Luciferase reporter gene and β-galactosidase control genes were co-transfected to enable activity to be measured. After 24 hours, cells were exposed to compounds in the concentration range of 0.1 nM-100 μM and left for a further 24 hours. Luciferase activity is determined by luminometry and PPARγ activation is expressed as a ratio of luciferase activity to β-galactosidase activity to account for transfection efficiency. Potency is described by an EC50 defined as the concentration of compound producing receptor activation equivalent to 50% of the maximum for that compound (shown in Table I as transfection EC50). The maximum fold activation is a measure of efficacy and is expressed as a percentage of a reference full agonist run in the same assay. Efficacy is described by % activation of receptor relative to a standard thiazolidinedione (TZD) full agonist.

Drawing on patent publication US20100029710A1, “COMPOUNDS HAVING BOTH ANGIOTENSIN II RECEPTOR ANTAGONISM AND PPARy ACTIVATING ACTIVITIES” (Pfizer Products Inc., priority 2006, published 2010), this text covers IC50, Emax and EC50 for 17 molecules.

What is called IC50 is the concentration needed to halve the response being measured. As a reminder, the EC50 is the concentration needed to bring the measured effect to its halfway point. A lower EC50 goes with a more potent agent.

For the molecule `CCc1nc2c(C)cc(CCCc3cccnc3)nc2n1[C@H]1CCc2cc(-c3ccccc3-c3nnn[nH]3)ccc21` [Example 32, 3-((1S)-5-(2-(1H-tetrazol-5-yl)phenyl)-2,3-dihydro-1H-inden-1-yl)-2-ethyl-7-methyl-5-(3-(pyridin-3-yl)propyl)-3H-imidazo[4,5-b]pyridine], in experiment [1], the IC50 came out at 2.1 nM. Besides, in experiment [2], the Emax turned out to be 20% and the midpoint of the response, the EC50, lay at 510 nM.
For `CCc1nc2c(C)cc(CC[C@@H](C)OC)nc2n1[C@H]1CCc2cc(-c3ccccc3-c3nnn[nH]3)ccc21` [Example 39, 3-((1S)-5-(2-(1H-tetrazol-5-yl)phenyl)-2,3-dihydro-1H-inden-1-yl)-2-ethyl-5-((R)-3-methoxybutyl)-7-methyl-3H-imidazo[4,5-b]pyridine], in experiment [1], the IC50 came to 1.1 nM. For the same molecule, in experiment [2], the Emax is 24% and the EC50 came out at 135 nM.
Regarding `CCc1nc2c(C)cc([C@H](O)c3ccccc3)nc2n1[C@H]1CCc2cc(-c3ccccc3-c3nnn[nH]3)ccc21` [Example 8b, (R)-(3-((1S)-5-(2-(1H-tetrazol-5-yl)phenyl)-2,3-dihydro-1H-inden-1-yl)-2-ethyl-7-methyl-3H-imidazo[4,5-b]pyridin-5-yl)(phenyl)methanol], the IC50 in experiment [1] came to 1.5 nM. Further, in experiment [2], the Emax came out at 25% and the EC50 is 100 nM.
Regarding `CCc1nc2c(C)cc(CCc3cccnc3)nc2n1[C@H]1CCc2cc(-c3ccccc3-c3nnn[nH]3)ccc21` [Example 24, 3-((1S)-5-(2-(1H-tetrazol-5-yl)phenyl)-2,3-dihydro-1H-inden-1-yl)-2-ethyl-7-methyl-5-(2-(pyridin-3-yl)ethyl)-3H-imidazo[4,5-b]pyridine], in experiment [1], the IC50 is 2.1 nM. Besides, in experiment [2], the Emax worked out at 28% and a half-maximal response (EC50) required 425 nM.
For the molecule `CCc1nc2c(C)cc(C3OC3(C)C)nc2n1[C@H]1CCc2cc(-c3ccccc3-c3nnn[nH]3)ccc21` (stereo partly drawn) [Example 22, 3-((1S)-5-(2-(1H-tetrazol-5-yl)phenyl)-2,3-dihydro-1H-inden-1-yl)-5-(3,3-dimethyloxiran-2-yl)-2-ethyl-7-methyl-3H-imidazo[4,5-b]pyridine], the IC50 in experiment [1] is 2.2 nM. In addition, in experiment [2], the Emax was 28% and the EC50 came to 460 nM.
With `CCc1nc2c(C)cc(CC3CCCCC3=O)nc2n1[C@H]1CCc2cc(-c3ccccc3-c3nnn[nH]3)ccc21` (stereo partly drawn) [Example 63, 2-((3-((1S)-5-(2-(1H-tetrazol-5-yl)phenyl)-2,3-dihydro-1H-inden-1-yl)-2-ethyl-7-methyl-3H-imidazo[4,5-b]pyridin-5-yl)methyl)cyclohexanone], the IC50 in experiment [1] was 2.4 nM. Also, in experiment [2], the Emax was found to be 27% and the EC50 amounted to 295 nM.
With `CCc1nc2c(C)cc(COC(C)C)nc2n1[C@H]1CCc2cc(-c3ccccc3-c3nnn[nH]3)ccc21` [Example 4, 3-((1S)-5-(2-(1H-tetrazol-5-yl)phenyl)-2,3-dihydro-1H-inden-1-yl)-2-ethyl-5-(isopropoxymethyl)-7-methyl-3H-imidazo[4,5-b]pyridine], the IC50 in experiment [1] was 2.2 nM. In experiment [2], the Emax was 32% and the EC50 came out at 295 nM.
Regarding `CCc1nc2c(C)cc(CC3CCCC3O)nc2n1[C@H]1CCc2cc(-c3ccccc3-c3nnn[nH]3)ccc21` (single isomer, unassigned) [Example 65], the IC50 in experiment [1] is 2.3 nM. Also, in experiment [2], the Emax worked out at 22% and the EC50 came out at 245 nM.
For `CCc1nc2c(C)cc(/C=C/COC)nc2n1[C@H]1CCc2cc(-c3ccccc3-c3nnn[nH]3)ccc21` [Example 23, 3-((1S)-5-(2-(1H-tetrazol-5-yl)phenyl)-2,3-dihydro-1H-inden-1-yl)-2-ethyl-5-((E)-3-methoxyprop-1-enyl)-7-methyl-3H-imidazo[4,5-b]pyridine], in that order: 4.8 nM, 26% and 220 nM.
As for `CCc1nnc(Cc2cc(C)c3nc(CC)n([C@H]4CCc5cc(-c6ccccc6-c6nnn[nH]6)ccc54)c3n2)o1` [Example 62, 3-((1S)-5-(2-(1H-tetrazol-5-yl)phenyl)-2,3-dihydro-1H-inden-1-yl)-2-ethyl-5-((5-ethyl-1,3,4-oxadiazol-2-yl)methyl)-7-methyl-3H-imidazo[4,5-b]pyridine], in experiment [1], the IC50 amounted to 1.4 nM. For the same molecule, in experiment [2], the Emax stood at 50% and a half-maximal response (EC50) required 70 nM.
For `CCc1nc2c(C)cc(CC[C@@H](O)CC)nc2n1[C@H]1CCc2cc(-c3ccccc3-c3nnn[nH]3)ccc21` [Example 46, (S)-1-(3-((1S)-5-(2-(1H-tetrazol-5-yl)phenyl)-2,3-dihydro-1H-inden-1-yl)-2-ethyl-7-methyl-3H-imidazo[4,5-b]pyridin-5-yl)pentan-3-ol], in that order: 1.2 nM, 26% and 170 nM.
Consider `CCc1nc2c(C)cc([C@@H](O)c3ccccc3)nc2n1[C@H]1CCc2cc(-c3ccccc3-c3nnn[nH]3)ccc21` (single isomer, unassigned) [Example 8a], for which the IC50 in experiment [1] worked out at 1.3 nM. In experiment [2], the Emax amounted to 16% and the midpoint of the response, the EC50, lay at 60 nM.
Turning to `CCc1nc2c(C)cc(Cn3nccn3)nc2n1[C@H]1CCc2cc(-c3ccccc3-c3nnn[nH]3)ccc21` [Example 66, 3-((1S)-5-(2-(1H-tetrazol-5-yl)phenyl)-2,3-dihydro-1H-inden-1-yl)-5-((2H-1,2,3-triazol-2-yl)methyl)-2-ethyl-7-methyl-3H-imidazo[4,5-b]pyridine], the IC50 in experiment [1] amounted to 6 nM. For the same molecule, in experiment [2], the Emax amounted to 22% and the EC50 came to 435 nM.
For `CCc1nc2c(C)cc(COC(C)(C)C)nc2n1[C@H]1CCc2cc(-c3ccccc3-c3nnn[nH]3)ccc21` [Example 5, 3-((1S)-5-(2-(1H-tetrazol-5-yl)phenyl)-2,3-dihydro-1H-inden-1-yl)-5-(tert-butoxymethyl)-2-ethyl-7-methyl-3H-imidazo[4,5-b]pyridine], the IC50 in experiment [1] worked out at 2.9 nM. In addition, in experiment [2], the Emax is 48% and the EC50 came to 290 nM.
For the molecule `CCCc1nc2c(C)cc(CCC(C)(O)c3ccccc3)nc2n1[C@H]1CCc2cc(-c3ccccc3-c3nnn[nH]3)ccc21` (stereo partly drawn) [Example 51, 4-(3-((1S)-5-(2-(1H-tetrazol-5-yl)phenyl)-2,3-dihydro-1H-inden-1-yl)-7-methyl-2-propyl-3H-imidazo[4,5-b]pyridin-5-yl)-2-phenylbutan-2-ol], the IC50 in experiment [1] was 2.1 nM. Further, in experiment [2], the Emax is 36% and the midpoint of the response, the EC50, lay at 130 nM.
`CCc1nc2c(C)cc(CCC3CCCCC3)nc2n1[C@H]1CCc2cc(-c3ccccc3-c3nnn[nH]3)ccc21` [Example 58, 3-((1S)-5-(2-(1H-tetrazol-5-yl)phenyl)-2,3-dihydro-1H-inden-1-yl)-5-(2-cyclohexylethyl)-2-ethyl-7-methyl-3H-imidazo[4,5-b]pyridine]: the IC50 in experiment [1] stood at 3.8 nM. Also, in experiment [2], the Emax worked out at 31% and the concentration giving a half-maximal response (EC50) stood at 200 nM.
For the molecule `CCc1nc2c(C)cc(Cn3cccn3)nc2n1[C@H]1CCc2cc(-c3ccccc3-c3nnn[nH]3)ccc21` [Example 6, 5-((1H-pyrazol-1-yl)methyl)-3-((1S)-5-(2-(1H-tetrazol-5-yl)phenyl)-2,3-dihydro-1H-inden-1-yl)-2-ethyl-7-methyl-3H-imidazo[4,5-b]pyridine], the IC50 in experiment [1] was 10 nM. In addition, in experiment [2], the Emax amounted to 46% and the response was half-maximal at 275 nM (EC50).
